{"source": "patent US10293014B2", "about": "“Immune stimulating composition comprising an extract of Aronia sp. in combination with selenium and/or zinc” (Ursapharm Arzneimittel GmbH, priority 2009, dated 2019)", "system": "macrophages of the mouse leukaemic monocyte macrophage cell line RAW 264.7", "test": "Chemiluminescence assay of macrophage activity (lucigenine, zymosan)", "type": "cell-based", "conditions": "selenium alone, RAW 264.7, FIG. 3", "experimental": "Cells: Cell line (RAW 264.7, murine macrophages) was purchased from the America Type Culture Collection and cultivated as recommended.\nChemiluminescence Assay: Lucigenine (Sigma Chemicals Co.) was dissolved in Hank's Balanced Salt Solution (HBSS; Gibco Co.) at a concentration of 2×10^−3 M. This stock solution was further diluted in HBSS prior to use. 1 ml cells (5×10^6 cells/ml) were incubated with 0.1 ml solution of Aronia extract and Aronia extract together with sodium selenite (dosis kinetics for each component and the combinations as documented in the figures). All these constituents were kept in an incubator (37° C., 5% CO2) for 30 min, then centrifuged at 1200 U/min for 5 min and resuspended in minimal essential medium (MEM, Gibco Co.).\nThe reaction mixture consisted of a suspension (0.25 ml) at a concentration of 5×10^6 PMNL (polymorphonuclear leucocytes)/ml respectively monocytes/macrophages, 50 μl zymosan, and 0.45 ml medium containing 2×10^−6 M lucigenine. The reaction mixture was kept at 37° C. before chemoluminescence measurements were performed with a Luminometer (Luminoskan 1251, Labsystems) according to manufacturer's instructions (User's Manual 1995)."}
{"smiles": "O=[Se]([O-])[O-].[Na+].[Na+]", "note": "[selenium, sodium selenite]", "values": [{"measurement": "concentrations that decrease macrophage activity", "value": "> 8", "unit": "µg/mL"}]}
